From PubChem BioAssay AID248 (DTP/NCI, 2004)
Where “and” joins values, the source holds several entries; their conditions need not be identical. Equal entries are not always repeated. Inconclusive results and toxic doses are left out. No stated cut-off is given here; in the data, active means T/C of 150% or more; inactive means T/C below 125%.

System: L1210 leukemia ip in BDF1 mice, survival T/C
Experiment: NCI In Vivo Anticancer Drug Screen. Data for tumor model L1210 Leukemia (intraperitoneal) in B6D2F1 (BDF1) mice
Details: endpoint: mean survival time, higher = longer survival
In short: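 Each compound was tested against a transplantable tumor grown in mice. The endpoint was survival, with treated animals benchmarked against vehicle controls as a simple ratio.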

[1] = dose: 10.0 mg/kg/injection, schedule: Q04DX003 (ip), vehicle: Klucel (hydroxypropylcellulose) (HPC)
[2] = dose: 40.0 mg/kg/injection, schedule: Q04DX003 (ip), vehicle: Klucel (hydroxypropylcellulose) (HPC)
[3] = dose: 25.0 mg/kg/injection, schedule: Q01DX009 (ip), vehicle: saline
[4] = dose: 50.0 mg/kg/injection, schedule: Q01DX009 (ip), vehicle: saline
[5] = dose: 100.0 mg/kg/injection, schedule: Q01DX009 (ip), vehicle: saline
[6] = dose: 100.0 mg/kg/injection, schedule: Q04DX003 (ip), vehicle: saline
[7] = dose: 200.0 mg/kg/injection, schedule: Q04DX003 (ip), vehicle: saline
[8] = dose: 100.0 mg/kg/injection, schedule: Q04DX002 (ip), vehicle: saline with Tween-80
[9] = dose: 200.0 mg/kg/injection, schedule: Q04DX002 (ip), vehicle: saline with Tween-80
[10] = dose: 100.0 mg/kg/injection, schedule: Q04DX003 (ip), vehicle: Klucel (hydroxypropylcellulose) (HPC)
[11] = dose: 100.0 mg/kg/injection, schedule: Q01DX009 (ip), vehicle: saline with Tween-80
[12] = dose: 200.0 mg/kg/injection, schedule: Q01DX009 (ip), vehicle: saline with Tween-80
[13] = dose: 400.0 mg/kg/injection, schedule: Q01DX009 (ip), vehicle: saline with Tween-80
[14] = dose: 100.0 mg/kg/injection, schedule: Q01DX001 (ip), vehicle: other
[15] = dose: 200.0 mg/kg/injection, schedule: Q01DX001 (ip), vehicle: other
[16] = dose: 400.0 mg/kg/injection, schedule: Q01DX001 (ip), vehicle: other

Measured: T/C

COC(=O)C1C2CC3c4[nH]c5ccc(OC)cc5c4CCN3CC2CC(OC(=O)c2cc(OC)c(OC)c(OC)c2)C1OC (stereo not given)
inactive: [1] 102 % of control | dose: 20.0 mg/kg/injection, schedule: Q04DX003 (ip), vehicle: Klucel (hydroxypropylcellulose) (HPC) 98 % of control | dose: 22.81 mg/kg/injection, schedule: Q01DX009 (ip), vehicle: Klucel (hydroxypropylcellulose) (HPC) 111 % of control | [2] 114 % of control | dose: 45.62 mg/kg/injection, schedule: Q01DX009 (ip), vehicle: Klucel (hydroxypropylcellulose) (HPC) 91 % of control | dose: 80.0 mg/kg/injection, schedule: Q04DX003 (ip), vehicle: Klucel (hydroxypropylcellulose) (HPC) 96 % of control | dose: 91.25 mg/kg/injection, schedule: Q01DX009 (ip), vehicle: Klucel (hydroxypropylcellulose) (HPC) 94 % of control | dose: 160.0 mg/kg/injection, schedule: Q04DX003 (ip), vehicle: Klucel (hydroxypropylcellulose) (HPC) 93 % of control | dose: 240.0 mg/kg/injection, schedule: Q04DX003 (ip), vehicle: Klucel (hydroxypropylcellulose) (HPC) 107 % of control | dose: 365.0 mg/kg/injection, schedule: Q04DX003 (ip), vehicle: Klucel (hydroxypropylcellulose) (HPC) 102 % of control

C/C=C/C=C/COC(=O)CCCCCC
inactive: dose: 100.0 mg/kg/injection, schedule: Q04DX002 (ip), vehicle: saline 98 % of control and 108 % of control | dose: 200.0 mg/kg/injection, schedule: Q04DX002 (ip), vehicle: saline 108 % of control and 119 % of control | dose: 400.0 mg/kg/injection, schedule: Q04DX002 (ip), vehicle: saline 107 % of control | dose: 600.0 mg/kg/injection, schedule: Q04DX002 (ip), vehicle: saline 98 % of control

Cc1cc(CC(=S)[S-])[n+](C)c(CC(=S)S)c1
inactive: dose: 87.5 mg/kg/injection, schedule: Q01DX009 (ip), vehicle: Klucel (hydroxypropylcellulose) (HPC) 105 % of control | dose: 175.0 mg/kg/injection, schedule: Q01DX009 (ip), vehicle: Klucel (hydroxypropylcellulose) (HPC) 101 % of control

c1ccc2cc3c(ccc4cccc[n+]43)cc2c1
inactive: dose: 50.0 mg/kg/injection, schedule: Q01DX001 (ip), vehicle: saline 119 % of control

S=C(S)N1CCN(C(=S)S)CC1
inactive: [3] 108 % of control | [4] 103 % of control | [5] 92 % of control and 102 % of control | [6] 99 % of control | [7] 97 % of control

Cc1cc(N(CCOS(C)(=O)=O)CCOS(C)(=O)=O)ccc1C=Nc1ccccc1C(=O)O
inactive: dose: 2.5 mg/kg/injection, schedule: Q04DX003 (ip), vehicle: Klucel (hydroxypropylcellulose) (HPC) 124 % of control | dose: 5.0 mg/kg/injection, schedule: Q04DX003 (ip), vehicle: Klucel (hydroxypropylcellulose) (HPC) 113 % of control | [1] 109 % of control
active: [2] 153 % of control

O=[As](O)(O)CCCc1ccccc1
inactive: dose: 6.25 mg/kg/injection, schedule: Q01DX009 (ip), vehicle: Klucel (hydroxypropylcellulose) (HPC) 108 % of control | dose: 12.5 mg/kg/injection, schedule: Q01DX009 (ip), vehicle: Klucel (hydroxypropylcellulose) (HPC) 108 % of control

CCOC(=O)NC1c2ccccc2Oc2ccccc21
inactive: dose: 75.0 mg/kg/injection, schedule: Q01DX009 (ip), vehicle: saline 115 % of control | dose: 100.0 mg/kg/injection, schedule: Q04DX002 (ip), vehicle: Klucel (hydroxypropylcellulose) (HPC) 102 % of control | dose: 150.0 mg/kg/injection, schedule: Q01DX009 (ip), vehicle: saline 103 % of control | dose: 200.0 mg/kg/injection, schedule: Q04DX002 (ip), vehicle: Klucel (hydroxypropylcellulose) (HPC) 105 % of control | dose: 300.0 mg/kg/injection, schedule: Q01DX009 (ip), vehicle: saline 111 % of control | dose: 400.0 mg/kg/injection, schedule: Q04DX002 (ip), vehicle: Klucel (hydroxypropylcellulose) (HPC) 102 % of control

COc1ccc(C(O)c2c(CN3CCCCC3)c3ccccc3n2C)cc1 (stereo not given)
inactive: [8] 100 % of control | [9] 97 % of control

COc1cccc(/C=N/N2CCN(/N=C/c3cccc(OC)c3OC)CC2)c1OC
inactive: dose: 100.0 mg/kg/injection, schedule: Q01DX001 (ip), vehicle: carboxymethylcellulose (CMC) 94 % of control | dose: 200.0 mg/kg/injection, schedule: Q01DX001 (ip), vehicle: carboxymethylcellulose (CMC) 98 % of control | dose: 400.0 mg/kg/injection, schedule: Q01DX001 (ip), vehicle: carboxymethylcellulose (CMC) 100 % of control

CCCCN(CCCC)CCCC#N
inactive: [3] 105 % of control | dose: 25.0 mg/kg/injection, schedule: Q04DX003 (ip), vehicle: saline 106 % of control | [4] 103 % of control | dose: 50.0 mg/kg/injection, schedule: Q04DX003 (ip), vehicle: saline 100 % of control | [5] 100 % of control | [6] 103 % of control and 105 % of control

CCCCNS(=O)(=O)c1ccc(N)cc1
inactive: dose: 100.0 mg/kg/injection, schedule: Q01DX009 (ip), vehicle: saline sonified 102 % of control | [10] 98 % of control | dose: 200.0 mg/kg/injection, schedule: Q01DX009 (ip), vehicle: saline sonified 102 % of control | dose: 200.0 mg/kg/injection, schedule: Q04DX003 (ip), vehicle: Klucel (hydroxypropylcellulose) (HPC) 109 % of control | dose: 400.0 mg/kg/injection, schedule: Q01DX009 (ip), vehicle: saline sonified 98 % of control | dose: 400.0 mg/kg/injection, schedule: Q04DX003 (ip), vehicle: Klucel (hydroxypropylcellulose) (HPC) 117 % of control

C1CCC(CCC(CCC2CCCCC2)CCC2CCCCC2)CC1
inactive: dose: 100.0 mg/kg/injection, schedule: Q01DX001 (ip), vehicle: Klucel (hydroxypropylcellulose) (HPC) 89 % of control | dose: 200.0 mg/kg/injection, schedule: Q01DX001 (ip), vehicle: Klucel (hydroxypropylcellulose) (HPC) 91 % of control | dose: 400.0 mg/kg/injection, schedule: Q01DX001 (ip), vehicle: Klucel (hydroxypropylcellulose) (HPC) 91 % of control

NNP(=O)(N1CCCCC1)N1CCCCC1
inactive: [8] 90 % of control | [9] 97 % of control

COC1=CCC2=C(CCO2)C1
inactive: dose: 100.0 mg/kg/injection, schedule: Q04DX003 (ip), vehicle: acetone 95 % of control | dose: 200.0 mg/kg/injection, schedule: Q04DX003 (ip), vehicle: acetone 95 % of control | dose: 400.0 mg/kg/injection, schedule: Q04DX003 (ip), vehicle: acetone 96 % of control

O=C(O)Cc1cc2c(cc1I)OCO2
inactive: [11] 98 % of control | [12] 104 % of control | [13] 109 % of control

CC(C)C(NC(=O)OCc1ccccc1)C(=O)OCc1ccc([N+](=O)[O-])cc1 (stereo not given)
inactive: [14] 90 % of control | [15] 94 % of control | [16] 90 % of control

O=S(=O)(O)c1cccc(N=Nc2c(S(=O)(=O)O)cc3cc(S(=O)(=O)O)c(N=Nc4cccc(S(=O)(=O)O)c4)c(O)c3c2O)c1
inactive: [11] 109 % of control | [6] 116 % of control | [12] 97 % of control | [7] 111 % of control | [13] 108 % of control | dose: 400.0 mg/kg/injection, schedule: Q04DX003 (ip), vehicle: saline 103 % of control

Cc1ccc(Nc2cc(=O)[nH]c(N)n2)cc1
inactive: dose: 100.0 mg/kg/injection, schedule: Q01DX Z (ip), vehicle: methylcellulose (MC) 94 % of control

O=C(Nc1ccccc1Cl)OCCOc1ccccc1
inactive: dose: 100.0 mg/kg/injection, schedule: Q01DX009 (ip), vehicle: Klucel (hydroxypropylcellulose) (HPC) 97 % of control | dose: 200.0 mg/kg/injection, schedule: Q01DX009 (ip), vehicle: Klucel (hydroxypropylcellulose) (HPC) 97 % of control | dose: 400.0 mg/kg/injection, schedule: Q01DX009 (ip), vehicle: Klucel (hydroxypropylcellulose) (HPC) 94 % of control

c1cnc2sccc2c1
inactive: dose: 50.0 mg/kg/injection, schedule: Q01DX009 (ip), vehicle: saline with Tween-80 113 % of control | [11] 95 % of control | dose: 100.0 mg/kg/injection, schedule: Q04DX003 (ip), vehicle: saline with Tween-80 102 % of control | dose: 200.0 mg/kg/injection, schedule: Q04DX003 (ip), vehicle: saline with Tween-80 103 % of control

Cc1c(N)ccc2ccccc12
inactive: dose: 25.0 mg/kg/injection, schedule: Q04DX003 (ip), vehicle: Klucel (hydroxypropylcellulose) (HPC) 94 % of control | dose: 50.0 mg/kg/injection, schedule: Q04DX003 (ip), vehicle: Klucel (hydroxypropylcellulose) (HPC) 91 % of control | [14] 103 % of control | [10] 91 % of control | [15] 99 % of control | [16] 97 % of control
